From patent US11485742B2, “2-azaspiro[3.4]octane derivatives as M4 agonists” (NOVARTIS AG, priority 2019, dated 2022)

Legend:
[1] = target: T1, human cloned CHRM5 receptor (Homo sapiens, UniProt P08912); assay: CHRM5 Ca++ Flux Assay (M5_CHO cells, agonist mode); assay type: cell-based; conditions: for M5 FDSS PA % / Emax: Percent Activity (PA) measured to EC100 of Carbachol; for EC50: agonist mode, geometric mean if tested more than once, read-out: M5 FDSS EC50; for Emax: read-out: M5 FDSS PA %
T1 construct: expressed in transfected cells; host or cells: CHO (M5_CHO)
T1 sequence (P08912 1-532): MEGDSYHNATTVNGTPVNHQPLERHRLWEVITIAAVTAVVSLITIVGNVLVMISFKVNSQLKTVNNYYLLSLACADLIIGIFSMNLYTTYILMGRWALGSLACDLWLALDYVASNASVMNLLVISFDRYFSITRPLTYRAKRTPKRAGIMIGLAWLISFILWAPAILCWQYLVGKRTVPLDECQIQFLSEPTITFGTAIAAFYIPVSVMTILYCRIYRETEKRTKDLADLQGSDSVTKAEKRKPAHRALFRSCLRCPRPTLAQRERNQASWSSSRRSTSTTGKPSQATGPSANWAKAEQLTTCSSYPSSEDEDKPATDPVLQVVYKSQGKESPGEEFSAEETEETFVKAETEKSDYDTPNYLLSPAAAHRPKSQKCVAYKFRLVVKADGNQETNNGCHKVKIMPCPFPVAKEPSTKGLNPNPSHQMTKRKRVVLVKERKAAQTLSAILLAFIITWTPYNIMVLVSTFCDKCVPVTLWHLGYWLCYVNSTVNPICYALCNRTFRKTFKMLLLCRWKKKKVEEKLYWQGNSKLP
Protocol: (§1) The above examples were characterized by measuring the intracellular mobilization of Ca^++ ions caused by signaling events mediated by the receptor. The Intra-cellular Calcium flux levels were captured by the highly sensitive Ca^++ indicator, Calcium Assay Kit (BD Biosciences; Catalog Number 640178. The fluorescent activity from all receptors were monitored by the fluorescent imager, FDSS 7000EX (Hamamatsu) over a span of 3 minutes. The change in Calcium flux was readily captured upon activation with the muscarinic orthosteric agonist, Carbachol.
(§2) CHO-K1 cells stably expressing the human cloned CHRM3 receptor (M3_CHO cells) were grown and maintained in a monolayer culture with F12/HAM (Life Technologies) supplemented with 10% Fetal Bovine Serum, IX Pen-Strep, and 0.4 mg/mL Geneticin in a humidified atmosphere (5% CO2) at 37° C. The cultures were grown to 80-90% confluency in T150 flasks (Corning) and washed with 1×DPBS and lifted with 0.05% Trypsin (Life Technologies). The cells were then spun (1K rpm, 3 minutes) and frozen using Recovery Cell Culture Freezing Media (Gibco Technologies). Cells were stored in liquid nitrogen and thawed a day before the assay. A similar procedure was used for cells stably expressing the human cloned CHRM5 receptor (M5_CHO).
Prior to the day of the assay, stable M3_CHO or M5_CHO cells were thawed and plated on Greiner 384 well black TC treated plates at 12K cells/well in F12/DMEM supplemented with 10% FBS (Hyclone) and kept overnight in a humidified atmosphere (5% CO2) at 37° C. The next day, cells were loaded with Ca^++ dye (BD Biosciences) using Loading Buffer (HBSS +Ca/+Mg, 20 mM HEPES, 2.5 mM Probenecid) and placed back in cell incubator for a minimum of 1 hour. After incubation, the dye was replaced with Assay Buffer (HBSS −Ca/−Mg, 20 mM HEPES, 2.5 mM Probenecid) and kept at room temperature in the dark before running on cell imager. The FDSS 7000EX (Hamamatsu) was used to acquire Ca^+− traces from cells treated with 11 point dose response of compounds in triplicate in order to generate dose response curves in agonist mode. All compounds were serially diluted in DMSO then prepared in Assay Buffer for Ca^++ flux studies. The dose response curves were generated from the average of triplicate wells obtained from each data point and used a non-linear regression of four parameter dose response algorithm. The Percent Activity (PA) was measured to EC100 of Carbachol.
(§3) If an Example was tested more than once in an assay, then the values below represent the geometric mean of the results from each independent experiment.

[2] = target: T2, human cloned CHRM2 receptor (Homo sapiens, UniProt P08172); assay: CHRM2 Ca++ Flux Assay (M2_CHO cells, agonist mode); assay type: cell-based; conditions: M2 CHO cells; for EC50: agonist mode, geometric mean if tested more than once, read-out: M2 FDSS EC50; for M2 FDSS PA % / Emax: Percent Activity (PA) measured to EC100 of Carbachol; for Emax: read-out: M2 FDSS PA %
T2 construct: expressed in transfected cells; host or cells: CHO-K1 (M2_CHO)
T2 sequence (P08172 1-466): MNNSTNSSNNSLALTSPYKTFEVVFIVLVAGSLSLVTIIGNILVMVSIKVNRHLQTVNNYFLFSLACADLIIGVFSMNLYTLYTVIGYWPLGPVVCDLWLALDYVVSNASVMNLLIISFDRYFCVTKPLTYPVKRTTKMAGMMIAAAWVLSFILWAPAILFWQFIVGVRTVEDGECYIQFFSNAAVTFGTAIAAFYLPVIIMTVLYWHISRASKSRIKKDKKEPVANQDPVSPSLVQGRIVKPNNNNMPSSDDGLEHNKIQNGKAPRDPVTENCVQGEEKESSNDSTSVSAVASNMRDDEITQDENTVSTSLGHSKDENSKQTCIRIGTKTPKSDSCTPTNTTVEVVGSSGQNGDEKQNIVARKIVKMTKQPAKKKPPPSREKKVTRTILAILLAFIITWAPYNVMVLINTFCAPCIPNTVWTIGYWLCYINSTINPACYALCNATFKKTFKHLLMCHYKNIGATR
Protocol: as §1
as §2, with “CHRM2” for “CHRM3”, “(M2_CHO” for “(M3_CHO”, “1×Pen-Strep,” for “IX Pen-Strep,”, “assay.” for “assay. A similar procedure was used for cells stably expressing the human cloned CHRM5 receptor (M5_CHO).”
Prior to the day of the assay, stable M2 CHO cells were thawed and plated on Greiner 384 well TC treated plate at a density of 12K cells/well and kept overnight in a humidified atmosphere (5% CO2) at 37° C. The following day, the cells were loaded with Ca^++ dye (BD Biosciences) using Loading Buffer (HBSS +Ca/+Mg, 20 mM HEPES, 2.5 mM Probenecid) and placed back in cell incubator for a minimum of 1 hour and maximum of 2 hours. After incubation, the dye was replaced with Assay Buffer (HBSS −Ca/−Mg, 20 mM HEPES, 2.5 mM Probenecid) supplemented with 20 μM ATP (Sigma Aldrich) and kept at room temperature for 60 minutes prior before running on cell imager. The FDSS 7000EX (Hamamatsu) was used to acquire Ca^++ traces from cells in response to compound treatment and the data was used to generate dose response curves in agonist mode. All compounds were serially diluted in DMSO then prepared in Assay Buffer for Ca^−+ flux studies. The dose response curves were generated from the average of triplicate wells obtained from each data point and used a non-linear regression of four parameter dose response algorithm. The Percent Activity (PA) was measured to EC100 of Carbachol.
as §3

SMILES	M5 FDSS PA % [1] [%]	EC50 [1] [µM]	EC50 [2] [µM]	M2 FDSS PA % [2] [%]	Emax [1] [%]	Emax [2] [%]
Fc1ccc(OC[C@@H]2CCOC2)c(C2CCN([C@@H]3COC4(C3)CN(c3nnco3)C4)CC2)c1 [Example 1B, (S)-7-(4-(5-fluoro-2-(((R)-tetrahydrofuran-3-yl)methoxy)phenyl)piperidin-1-yl)-2-(1,3,4-oxadiazol-2-yl)-5-oxa-2-azaspiro[3.4]octane]		> 25	0.492		0	39
Fc1ccc(OC[C@H]2COCCO2)c(C2CCN([C@@H]3COC4(C3)CN(c3nnco3)C4)CC2)c1 [Example 1C]		> 25	0.503		0	29
Fc1ccc(O[C@@H]2CCOC2)c(C2CCN([C@@H]3COC4(C3)CN(c3nnco3)C4)CC2)c1 [Example 1D, (S)-7-(4-(5-fluoro-2-(((R)-tetrahydrofuran-3-yl)oxy)phenyl)piperidin-1-yl)-2-(1,3,4-oxadiazol-2-yl)-5-oxa-2-azaspiro[3.4]octane]		> 25	0.607		0	50
CC(C)(C#N)COc1ccc(F)cc1C1CCN([C@@H]2COC3(C2)CN(c2nnco2)C3)CC1 [Example 1E, (S)-3-(2-(1-(2-(1,3,4-oxadiazol-2-yl)-5-oxa-2-azaspiro[3.4]octan-7-yl)piperidin-4-yl)-4-fluorophenoxy)-2,2-dimethylpropanenitrile]		> 25	0.557		0	32
Fc1ccc(OC[C@@H]2COCCO2)c(C2CCN([C@@H]3COC4(C3)CN(c3nnco3)C4)CC2)c1 [Example 1F, (S)-7-(4-(2-(((S)-1,4-dioxan-2-yl)methoxy)-5-fluorophenyl)piperidin-1-yl)-2-(1,3,4-oxadiazol-2-yl)-5-oxa-2-azaspiro[3.4]octane]		> 25	0.39		0	31
Fc1ccc(OC2CCOCC2)c(C2CCN([C@@H]3COC4(C3)CN(c3nnco3)C4)CC2)c1 [Example 1G, (S)-7-(4-(5-fluoro-2-((tetrahydro-2H-pyran-4-yl)oxy)phenyl)piperidin-1-yl)-2-(1,3,4-oxadiazol-2-yl)-5-oxa-2-azaspiro[3.4]octane]		> 25	1.25		0	35
Fc1ccc(O[C@H]2CCOC2)c(C2CCN([C@@H]3COC4(C3)CN(c3nnco3)C4)CC2)c1 [Example 1H, (S)-7-(4-(5-fluoro-2-(((S)-tetrahydrofuran-3-yl)oxy)phenyl)piperidin-1-yl)-2-(1,3,4-oxadiazol-2-yl)-5-oxa-2-azaspiro[3.4]octane]		> 25	0.801		0	30

Further lines, results first:

M5 FDSS PA % [1] [%]	EC50 [1] [µM]	EC50 [2] [µM]	M2 FDSS PA % [2] [%]	Emax [1] [%]	Emax [2] [%]	SMILES
0	> 25	2.46	30			O[C@H]1CC[C@@H](c2ccc(F)cc2C2CCN([C@@H]3COC4(C3)CN(c3nnco3)C4)CC2)CC1 (single isomer, unassigned) [Example 3H, (1R,4s)-4-(2-(1-((S)-2-(1,3,4-oxadiazol-2-yl)-5-oxa-2-azaspiro[3.4]octan-7-yl)piperidin-4-yl)-4-fluorophenyl)cyclohexan-1-ol or (1S,4r)-4-(2-(1-((S)-2-(1,3,4-oxadiazol-2-yl)-5-oxa-2-azaspiro[3.4]octan-7-yl)piperidin-4-yl)-4-fluorophenyl)cyclohexan-1-ol]
0	> 25	3.86	32			O[C@H]1CC[C@@H](c2ccc(F)cc2C2CCN([C@@H]3COC4(C3)CN(c3nnco3)C4)CC2)CC1 (single isomer, unassigned) [Example 3I, (1R,4s)-4-(2-(1-((S)-2-(1,3,4-oxadiazol-2-yl)-5-oxa-2-azaspiro[3.4]octan-7-yl)piperidin-4-yl)-4-fluorophenyl)cyclohexan-1-ol or (1S,4r)-4-(2-(1-((S)-2-(1,3,4-oxadiazol-2-yl)-5-oxa-2-azaspiro[3.4]octan-7-yl)piperidin-4-yl)-4-fluorophenyl)cyclohexan-1-ol]
0	> 25	17.7	43			CC(C)(O)[C@H]1C[C@@H](Oc2ccc(F)cc2C2CCN([C@@H]3COC4(C3)CN(c3ncco3)C4)CC2)C1 (single isomer, unassigned) [Example 4T, 2-((1R,3s)-3-(4-fluoro-2-(1-((S)-2-(oxazol-2-yl)-5-oxa-2-azaspiro[3.4]octan-7-yl)piperidin-4-yl)phenoxy)cyclobutyl)propan-2-ol or 2-((1S,3r)-3-(4-fluoro-2-(1-((S)-2-(oxazol-2-yl)-5-oxa-2-azaspiro[3.4]octan-7-yl)piperidin-4-yl)phenoxy)cyclobutyl)propan-2-ol]
0	> 25	15.2	38			CC(C)(O)[C@H]1C[C@@H](Oc2ccc(F)cc2C2CCN([C@@H]3COC4(C3)CN(c3ncco3)C4)CC2)C1 (single isomer, unassigned) [Example 4U, 2-((1R,3s)-3-(4-fluoro-2-(1-((S)-2-(oxazol-2-yl)-5-oxa-2-azaspiro[3.4]octan-7-yl)piperidin-4-yl)phenoxy)cyclobutyl)propan-2-ol or 2-((1S,3r)-3-(4-fluoro-2-(1-((S)-2-(oxazol-2-yl)-5-oxa-2-azaspiro[3.4]octan-7-yl)piperidin-4-yl)phenoxy)cyclobutyl)propan-2-ol]
